{"source": "paper PMC9223267", "about": "“Serine hydroxymethyltransferase as a potential target of antibacterial agents acting synergistically with one-carbon metabolism-related inhibitors” (Communications Biology, 2022)", "molecules": {"B1": {"name": "Enterococcus faecium serine hydroxymethyltransferase (enzyme)", "chain": "VDYKTFDPDLWAAIAKEEERQEHNLELIASENFVSEAVMAAQGSILTNKYAEGYPGHRYYGGCEFVDIVENLAIDRAKELFGAKFANVQPHSGSQANTAAYLALVEPGDTILGMDLSAGGHLTHGSPVNFSGKTYHFVAYGVDPTTEVIDYNVVRILARKHQPKLIVAGASAYGRTIDFAKFREIADEVGAKLMVDMAHIAGLVAAGLHPNPVPYADITTTTTHKTLRGPRGGMILTNDEALAKKINSAVFPGIQGGPLEHVIAGKAVAFKEALDPAFKEYSEQIIANAKAMVKVFNQAIGTRVISGATDNHLMLIDVRELGINGKEAESILDSVNITVNKNSIPFETLSPFKTSGIRIGTPAITTRGFKEEDAVKVAELVVKALQAKDDNAQLDEVKTGVRELTEKFPLHKK", "modifications": "pyridoxal 5'-phosphate (PLP) covalently linked as a Schiff's base to K226 (in the efmSHMT/(+)-SHIN-1 structure; relocated to Ser or Gly in the ternary complexes)", "notes": "theoretical monomer molecular weight 44.7 kDa; A few vector residues may remain at the N-terminus after PreScission cleavage; also called efmSHMT; E. faecium SHMT; source: E. coli BL21(DE3), purified (HisTrap, PreScission digestion, HiTrap Q, Superdex 75); not shown: His tag, N-terminal, cleaved"}}, "key": {"E. faecium [1]": {"system": "E. faecium", "assay": "Antibacterial activity evaluation (turbidity, OD600)", "format": "cell-based, Enterococcus faecium (JCM5804)", "protocol": "(§1) E. faecium and E. faecalis were diluted to turbidity equivalents that matched 1.0 McFarland (McF) standard in distilled water (S. aureus and E. coli were also diluted to 0.5 McF), and additionally diluted 1:200 in Mueller–Hinton (MH) broth. The designated concentrations of the tested compounds were prepared by ten-fold serial dilutions directly in 96-well microtiter plates (IWAKI, Shizuoka, Japan), as previously described. […] The other compounds were serially diluted from 20 μM downwards (final concentration, 10 μM). […] Positive control wells included bacteria without any compound, and the negative control wells only contained MH broth. […] The optical density at 600 nm (OD600) was measured using a GloMax microtiter plate reader (Promega, WI, USA), and the EC50 values of each test compound and standard error were calculated by Microsoft Excel function, AVERAGE and STDEV/SQRT."}, "E. faecalis": {"system": "E. faecalis", "assay": "Antibacterial activity evaluation (turbidity, OD600)", "format": "cell-based, Enterococcus faecalis (JCM7783)", "conditions": "E. faecalis JCM7783", "protocol": "as §1"}, "S. aureus": {"system": "S. aureus", "assay": "Antibacterial activity evaluation (turbidity, OD600)", "format": "cell-based, Staphylococcus aureus (ATCC29213)", "conditions": "S. aureus ATCC29213", "protocol": "as §1"}, "E. coli": {"system": "E. coli", "assay": "Antibacterial activity evaluation (turbidity, OD600)", "format": "cell-based, Escherichia coli (ATCC25922)", "conditions": "E. coli ATCC25922", "protocol": "as §1"}, "E. faecium [2]": {"system": "E. faecium", "assay": "Antibacterial assay with an excess concentration of biomolecules (Ser, Gly, inosine, dT, FA)", "format": "cell-based, Enterococcus faecium (JCM5804)", "conditions": "E. faecium JCM5804; for EC50: read-out: EC50", "protocol": "as §1\nThe ratio of the control EC50 (no competitors added) to the experimental EC50 (competitors added) was calculated for each test substance."}, "[3]": {"conditions": "cited from earlier work"}, "[4]": {"biological_target": "the molecule itself", "assay": "dynamic light scattering; 25 °C, Zetasizer NanoS, efmSHMT at 0.5 mg/mL, in triplicate; hydrodynamic radius 4.209 nm"}}, "data": [{"molecule": "Cc1[nH]nc2c1C(c1cc(CO)cc(-c3ccccc3)c1)(C(C)C)C(C#N)=C(N)O2", "note": "(stereo not shown) [SHIN-1]", "values": [{"measurement": "pEC50 ± S.E.", "setting": "E. faecium [1]; E. faecium JCM5804", "result": "9.3 ± 0.1"}, {"measurement": "EC50", "setting": "E. faecium [1]; E. faecium JCM5804, read-out: EC50", "result": 0.5, "unit": "nM"}, {"measurement": "50% effective concentration (EC50)", "setting": "E. faecium [1]; growth of E. faecium, order of magnitude given", "result": "10^–10 to 10^–11 M"}, {"measurement": "pEC50 ± S.E.", "setting": "E. faecalis", "result": "< 5.7"}, {"measurement": "EC50", "setting": "E. faecalis; read-out: EC50", "result": "> 2000", "unit": "nM"}, {"measurement": "pEC50 ± S.E.", "setting": "S. aureus", "result": "< 5.7"}, {"measurement": "EC50", "setting": "S. aureus; read-out: EC50", "result": "> 2000", "unit": "nM"}, {"measurement": "pEC50 ± S.E.", "setting": "E. coli", "result": "< 5.7"}, {"measurement": "EC50", "setting": "E. coli; read-out: EC50", "result": "> 2000", "unit": "nM"}, {"measurement": "pEC50 ± S.E.", "setting": "E. faecium [2]; 1 mM Inosine", "result": "8.3 ± 0.3"}, {"measurement": "EC50", "setting": "E. faecium [2]; 1 mM Inosine", "result": 5.2, "unit": "nM"}, {"measurement": "pEC50 ± S.E.", "setting": "E. faecium [2]; 1 mM deoxythymidine", "result": "< 5.7"}, {"measurement": "EC50", "setting": "E. faecium [2]; 1 mM deoxythymidine", "result": "> 2000", "unit": "nM"}, {"measurement": "pEC50 ± S.E.", "setting": "E. faecium [2]; 10 mM Glycine", "result": "8.9 ± 0.0"}, {"measurement": "EC50", "setting": "E. faecium [2]; 10 mM Glycine", "result": 1.2, "unit": "nM"}, {"measurement": "pEC50 ± S.E.", "setting": "E. faecium [2]; 100 mM Serine", "result": "8.5 ± 0.1"}, {"measurement": "EC50", "setting": "E. faecium [2]; 100 mM Serine", "result": 3.4, "unit": "nM"}, {"measurement": "pEC50 ± S.E.", "setting": "E. faecium [2]; 0.1 M folate", "result": "< 5.7"}, {"measurement": "EC50", "setting": "E. faecium [2]; 0.1 M folate", "result": "> 2000", "unit": "nM"}, {"measurement": "pharmacokinetic properties", "setting": "[3]", "result": "lacked pharmacokinetic properties suitable"}, {"measurement": "half-life", "setting": "[3]; response letter, ref (6) García-Cañaveras et al. 2021", "result": "too short to use in vivo"}]}, {"molecule": "B1", "values": [{"measurement": "stoichiometry N", "setting": "[4]", "result": 2}]}]}
